From patent US20230303581A1, “ORALLY BIOAVAILABLE, BRAIN-PENETRANT COMPOUND WITH SELECTIVITY FOR THE CANNABINOID TYPE 2 RECEPTOR WITH POTENTIAL USE TOWARDS VISCERAL PAIN MANAGEMENT AND NEURODEGENERATIVE DISORDERS” (University of Mississippi, priority 2022, published 2023)

Legend:
human CB2 receptors = human CB2 receptors (Homo sapiens (Human), UniProt P34972); assay: Cannabinoid receptor binding (displacement) assay, CB2; conditions: 10 μM compound
Method: (§1) The affinities of the compounds for CB1 and CB2 receptors were examined using displacement assays, as previously described. Briefly, cell membranes from CHO cells expressing human CB1 or human CB2 receptors were isolated using differential centrifugation. Test compounds reconstituted in DMSO and were incubated with the isolated membrane in binding buffer (50 mM Tris-HCl, 1 mM EDTA, 3 mM MgCl2, 5 mg/mL BSA, pH 7.4) along with 2.5 nM [^3H]CP-55,940. Total binding was assessed in the presence of equal concentration of DMSO, while non-specific binding was determined in the presence of 10 μM CP-55,940, and background binding was determined in wells lacking membrane. Following incubation at 30° C. for 60 min, the binding reactions were terminated by vacuum filtration through Whatman GF/C filters. The filters were then washed twice with ice-cold buffer (50 mM Tris-HCl, 1 mg/mL BSA). Liquid scintillation cocktail was added to each well and the total tritiated counts per minute were analyzed using a TopCount scintillation counter. Background counts were subtracted from all wells and the percent displacement from total binding was calculated.
(§2) The compounds were initially screened at 10 μM concentrations. If they produced at least ±30% displacement of the radioligand, then full competition curves were constructed. Ki values were calculated using GraphPad Prism (San Diego, CA, USA) and Kd values determined using a 1 site fit. All assays were run in technical and biological replicates so that the n=5-6. PK Evaluation in CD-1 Mice
(§3) The CB1/CB2 receptor binding activities of analogs 4a-4q were assessed via radioactivity-based competitive binding assays using [^3H]CP55,940, an extensively studied radioligand that is frequently used for cannabinoid assays. […] In preliminary screening, all 17 synthetic PBD compounds (4a-4q) were subjected to in vitro CB1 and CB2 binding assays at a single concentration of 10 μM. […] Therefore, the most promising ligands (4k and 4q) were selected for assessment in full competition curves against CB1 and CB2.

human CB1 receptors = human CB1 receptors (Homo sapiens (Human), UniProt P21554); assay: Cannabinoid receptor binding (displacement) assay, CB1; conditions: 10 μM compound
Sequence of human CB1 receptors (P21554 whole entry): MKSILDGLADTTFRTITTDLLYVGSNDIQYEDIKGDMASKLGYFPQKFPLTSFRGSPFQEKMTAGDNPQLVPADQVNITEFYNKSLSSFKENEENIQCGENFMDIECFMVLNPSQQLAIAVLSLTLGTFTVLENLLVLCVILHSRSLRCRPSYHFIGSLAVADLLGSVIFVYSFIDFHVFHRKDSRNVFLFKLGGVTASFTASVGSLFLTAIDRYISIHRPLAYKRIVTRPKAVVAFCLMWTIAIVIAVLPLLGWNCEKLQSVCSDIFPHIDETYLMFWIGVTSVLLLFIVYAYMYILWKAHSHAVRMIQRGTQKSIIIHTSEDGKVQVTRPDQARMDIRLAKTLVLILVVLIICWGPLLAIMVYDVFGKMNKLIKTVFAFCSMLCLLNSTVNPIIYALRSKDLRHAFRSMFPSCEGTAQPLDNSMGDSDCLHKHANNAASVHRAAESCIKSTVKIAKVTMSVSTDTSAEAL
Method: as §1, §2, §3

Sequence of human CB2 receptors (P34972 whole entry): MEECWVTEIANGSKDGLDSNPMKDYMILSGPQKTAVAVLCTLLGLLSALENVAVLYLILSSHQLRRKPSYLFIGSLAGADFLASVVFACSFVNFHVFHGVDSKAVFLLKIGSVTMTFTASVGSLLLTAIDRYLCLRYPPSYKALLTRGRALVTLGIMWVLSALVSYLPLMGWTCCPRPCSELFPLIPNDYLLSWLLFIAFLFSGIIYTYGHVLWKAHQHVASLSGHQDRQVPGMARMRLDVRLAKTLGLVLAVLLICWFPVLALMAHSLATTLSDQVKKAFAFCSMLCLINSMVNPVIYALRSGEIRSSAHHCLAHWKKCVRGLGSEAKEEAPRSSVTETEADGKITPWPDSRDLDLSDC

Compound | Displacement of [3H]CP-55,940 from CB2 (human CB2 receptors) [%] | Displacement of [3H]CP-55,940 from CB1 (human CB1 receptors) [%]
(S,E)-11-[(Benzo[d]thiazol-2-ylmethylene)hydrazono]-pyrrolo[2,1-c][1,4] Benzodiazepine [Compound 4n] | 43.34 | 44.14
Cn1cc(/C=N/N=C2/Nc3ccccc3C(=O)N3CCC[C@@H]23)c2ccccc21 [Compound 4o] | 1.01 | 5.09
O=C1c2ccccc2N/C(=N/N=C/c2ccc[nH]2)[C@@H]2CCCN12 [Compound 4a] | −12.50 | −3.09
Cn1ccnc1/C=N/N=C1/Nc2ccccc2C(=O)N2CCC[C@@H]12 [Compound 4b] | −14.48 | −13.99
O=C1c2ccccc2N/C(=N/N=C/c2sc3ccccc3c2Cl)[C@@H]2CCCN12 [Compound 4m] | 50.05 | 5.22
Cc1ncc(/C=N/N=C2/Nc3ccccc3C(=O)N3CCC[C@@H]23)s1 [Compound 4d] | −33.65 | −27.99
(S,E)-11-[(Benzo[b]thiophen-3-ylmethylene)hydrazono]-7-bromo-pyrrolo[2,1-c][1,4]Benzodiazepine [Compound 4j] | 65.24 | 66.81
(S,E)-11-[2-(Benzo[b]thiophenylmethylene)hydrazono]-pyrrolo[2,1-c][1,4]Benzodiazepine [Compound 4h] | 61.05 | 36.88
(S,E)-11-[(5-Methoxy-1H-indol-3-yl)methylene)hydrazono]-pyrrolo[2,1-c][1,4]Benzodiazepine [Compound 4p] | −29.47 | −27.20
